The target in this assay is human SERT (Homo sapiens, UniProt P31645). Put plainly: Inhibitory activity assay against 5-HT transporter (neurotransmitter transporter uptake assay kit). The assay is classed as cell-based. As to conditions: HEK-293 cells overexpressing human SERT; read-out: 5-HTT (IC50). The procedure:
In HEK-293 cells overexpressing human SERT, the transporter inhibitory effect of the test compound on human SERT was assayed using a Neurotransmitter transporter uptake assay kit (Molecular devices).

Counter-ions that a name gives are not always drawn.

Sequence of human SERT (P31645 whole entry): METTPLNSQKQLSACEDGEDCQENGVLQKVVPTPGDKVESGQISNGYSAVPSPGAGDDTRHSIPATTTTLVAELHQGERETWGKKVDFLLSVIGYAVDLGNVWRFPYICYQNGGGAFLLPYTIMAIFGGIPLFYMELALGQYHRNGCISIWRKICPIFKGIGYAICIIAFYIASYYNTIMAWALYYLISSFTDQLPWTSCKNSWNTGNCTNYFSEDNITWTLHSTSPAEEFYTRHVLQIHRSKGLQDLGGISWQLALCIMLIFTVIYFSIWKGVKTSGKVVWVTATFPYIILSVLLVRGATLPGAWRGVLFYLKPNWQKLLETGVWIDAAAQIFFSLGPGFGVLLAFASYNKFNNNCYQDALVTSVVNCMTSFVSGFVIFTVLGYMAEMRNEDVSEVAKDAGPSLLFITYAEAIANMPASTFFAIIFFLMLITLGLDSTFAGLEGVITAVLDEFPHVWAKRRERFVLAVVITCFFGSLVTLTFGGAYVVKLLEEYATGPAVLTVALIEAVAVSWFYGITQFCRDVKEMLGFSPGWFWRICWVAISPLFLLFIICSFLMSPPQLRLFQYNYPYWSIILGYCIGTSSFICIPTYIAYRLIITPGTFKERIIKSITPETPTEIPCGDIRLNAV

On to `CCNc1nc2c(s1)CC(N)(c1cccc(OC)c1)CC2` (racemic) [rac-A301, N^2-ethyl-6-(3-methoxyphenyl)-4,5,6,7-tetrahydrobenzo[d]thiazole-2,6-diamine hydrochloride], for which the IC50 stood at 4000 nM.
For `NC1(c2cccc(O)c2)CCc2nc(O)sc2C1` (racemic) [rac-A306, 6-amino-6-(3-hydroxyphenyl)-4,5,6,7-tetrahydrobenzo[d]thiazol-2-ol], the IC50 stood at 200 nM.
Regarding `NC1(c2ccccc2)CCc2scnc2C1` (racemic) [rac-A134, 5-phenyl-4,5,6,7-tetrahydrobenzo[d]thiazol-5-amine], the IC50 stood at 17000 nM.
For the molecule `COc1ccc(C2(N)CCc3nc(N)sc3C2)cc1` (racemic) [rac-A89, 6-(4-methoxyphenyl)-4,5,6,7-tetrahydrobenzothiazole-2,6-diamine], the IC50 was determined as 7600 nM.
The figure for `NC1(c2ccccc2)CCc2nnsc2C1` (racemic) [rac-A244, 6-phenyl-4,5,6,7-tetrahydrobenzo[d][1,2,3]thiadiazol-6-amine hydrochloride] is 1500 nM.
On to `N#Cc1cccc(C2(N)CCc3nc(N)sc3C2)c1` (racemic), for which the IC50 was 8900 nM.
Consider `Cc1ccccc1C1(N)CCc2nc(N)sc2C1` (racemic) [rac-A100, 6-(2-methylphenyl)-4,5,6,7-tetrahydrobenzothiazole-2,6-diamine], for which the concentration for half-maximal inhibition (IC50) is 17000 nM.
As to `NC1(c2ccc(F)cc2)CCCc2cn[nH]c21` (racemic) [rac-A222, 7-(4-fluorophenyl)-4,5,6,7-tetrahydro-1H-indazol-7-amine], the IC50 came to 10000 nM.
The figure for `CCOc1cccc([C@@]2(N)CCc3nc(N)sc3C2)c1` [R-A228, (R)-6-(3-ethoxyphenyl)-4,5,6,7-tetrahydrobenzo[d]thiazole-2,6-diamine] is 2900 nM.
The figure for `CNC1(c2cccc(OC)c2)CCc2ncsc2C1` (racemic) [rac-A273, 6-(3-methoxyphenyl)-N-methyl-4,5,6,7-tetrahydrobenzo[d]thiazol-6-amine hydrochloride] is 1000 nM; for `CNC1(c2ccccc2)CCc2nc(O)sc2C1` (racemic) [rac-A279, 6-(methylamino)-6-phenyl-4,5,6,7-tetrahydrobenzo[d]thiazol-2-ol] it is 28 nM.
`CNC1(c2cccc(C(F)(F)F)c2)CCc2nc(N)sc2C1` (racemic) [rac-A94, 6-(3-trifluoromethylphenyl)-N^6-methyl-4,5,6,7-tetrahydrobenzothiazole-2,6-diamine hydrobromide]: the IC50 is 4300 nM.
The figure for `NC1(c2ccccc2)CCc2nc(C(F)(F)F)sc2C1` (racemic) [rac-A131, 6-phenyl-2-(trifluoromethyl)-4,5,6,7-tetrahydrobenzo[d]thiazol-6-amine hydrochloride] is 3600 nM; for `Nc1nc2c(s1)C[C@@](N)(c1ccccc1)CC2` [R-A1] it is 1000 nM.
As for `COc1cccc(C2(N)CCc3nc(C(C)=O)sc3C2)c1` (racemic) [rac-A314, 1-(6-amino-6-(3-methoxyphenyl)-4,5,6,7-tetrahydrobenzo[d]thiazol-2-yl)ethan-1-one hydrochloride], the figure is 5600 nM; as for `Nc1nc2c(s1)CC(N)(c1ccc(F)cc1F)CC2` (racemic) [rac-A235, 6-(2,4-difluorophenyl)-4,5,6,7-tetrahydrobenzo[d]thiazole-2,6-diamine], 5900 nM; as for `CNC1(c2cccc(OC)c2)CCc2nc(N)sc2C1` (racemic) [rac-A88, 6-(3-methoxyphenyl)-N^6-methyl-4,5,6,7-tetrahydrobenzothiazole-2,6-diamine], 900 nM.
Regarding `CN(C)C1(c2ccccc2)CCc2sc(N)nc2C1` (racemic) [rac-A249, N^5, N^5-dimethyl-5-phenyl-4,5,6,7-tetrahydrobenzo[d]thiazole-2,5-diamine], the IC50 was 1000 nM.
For `COc1nc2c(s1)CC(N)(c1ccccc1)CC2` (racemic) [rac-A225, 2-methoxy-6-phenyl-4,5,6,7-tetrahydrobenzo[d]thiazol-6-amine], the IC50 worked out at 1000 nM.
Consider `COc1cccc(C2(N)CCc3nc(OC)sc3C2)c1` (racemic) [rac-A317, 2-methoxy-6-(3-methoxyphenyl)-4,5,6,7-tetrahydrobenzo[d]thiazol-6-amine], for which the IC50 is 5100 nM.
As to `N[C@]1(c2ccccc2)CCc2ncsc2C1` [R-A14], the IC50 worked out at 67 nM.
The figure for `COc1cccc(C2(N)CCc3nc(N)sc3C2)n1` (racemic) [rac-A310, 6-(6-methoxypyridin-2-yl)-4,5,6,7-tetrahydrobenzo[d]thiazole-2,6-diamine] is 16000 nM.
The figure for `COc1cccc(C2(N)CCc3nc(C(N)=O)sc3C2)c1` (racemic) [rac-A315, 6-amino-6-(3-methoxyphenyl)-4,5,6,7-tetrahydrobenzo[d]thiazole-2-formamide] is 6800 nM; for `COc1cccc(C2(N)CCc3nc(O)sc3C2)c1` (racemic) [rac-A262, 6-amino-6-(3-methoxyphenyl)-4,5,6,7-tetrahydrobenzo[d]thiazol-2-ol] it is 140 nM.
The figure for `Nc1nc2c(s1)CC(N)(c1ccc3ccccc3c1)CC2` (racemic) [rac-A118, 6-(naphthalen-2-yl)-4,5,6,7-tetrahydrobenzothiazole-2,6-diamine] is 2000 nM; for `NC1(c2ccccc2)CCc2oncc2C1` (racemic) [rac-A145, phenyl-4,5,6,7-tetrahydrobenzo[d]isoxazol-5-amine] it is 600 nM.
Consider `COc1cccc(C2(N)CCc3nc(Br)sc3C2)c1` (racemic) [rac-A318, 2-bromo-6-(3-methoxyphenyl)-4,5,6,7-tetrahydrobenzo[d]thiazol-6-amine hydrochloride], for which the IC50 stood at 4600 nM.
The figure for `NC1(c2ccccc2)CCc2nc(O)sc2C1` (racemic) [rac-A8, 6-amino-6-phenyl-4,5,6,7-tetrahydrobenzothiazol-2-ol] is 7 nM; for `CCOc1cccc(C2(N)CCc3nc(O)sc3C2)c1` (racemic) [rac-A295, 6-amino-6-(3-ethoxyphenyl)-4,5,6,7-tetrahydrobenzo[d]thiazol-2-ol hydrochloride] it is 110 nM.
As to `COc1cccc(C2(N)CCc3nc(-c4ccccc4)sc3C2)c1` (racemic) [rac-A319, 6-(3-methoxyphenyl)-2-phenyl-4,5,6,7-tetrahydrobenzo[d]thiazol-6-amine hydrochloride], the concentration for half-maximal inhibition (IC50) is 980 nM.
For `CNC1(c2ccc(F)cc2F)CCc2nc(N)sc2C1` (racemic) [rac-A236, 6-(2,4-difluorophenyl)-N^6-methyl-4,5,6,7-tetrahydrobenzo[d]thiazole-2,6-diamine], the IC50 was 2800 nM.
Consider `CCOc1nc2c(s1)CC(N)(c1ccccc1)CC2` (racemic) [rac-A257, 2-ethoxy-6-phenyl-4,5,6,7-tetrahydrobenzo[d]thiazol-6-amine], for which the IC50 amounted to 300 nM.
The figure for `CN(Cc1ccccc1)C1(c2ccccc2)CCc2[nH]ncc2C1` (racemic) [rac-A68, N-benzyl-N-methyl-5-phenyl-4,5,6,7-tetrahydro-1H-indazol-5-amine] is 700 nM; for `CNC1(c2ccc(OC)c(OC)c2)CCc2nc(N)sc2C1` (racemic) [rac-A254, 6-(3,4-dimethoxyphenyl)-N^6-methyl-4,5,6,7-tetrahydrobenzo[d]thiazole-2,6-diamine] it is 2000 nM.
On to `COc1cccc(C2(N)CCc3nc(C4CC4)sc3C2)c1` (racemic) [rac-A316, 2-cyclopropyl-6-(3-methoxyphenyl)-4,5,6,7-tetrahydrobenzo[d]thiazol-6-amine hydrochloride], for which the IC50 is 4000 nM.
In the case of `Nc1nc2c(s1)CC(N)(c1cccnc1)CC2` (racemic) [rac-A98, 6-(pyridin-3-yl)-4,5,6,7-tetrahydrobenzothiazole-2,6-diamine], the IC50 was determined as 16000 nM.
On to `CSc1cccc(C2(N)CCc3nc(N)sc3C2)c1` (racemic) [rac-A304, 6-(3-methylthio)phenyl-4,5,6,7-tetrahydrobenzo[d]thiazole-2,6-diamine], for which the IC50 was 3700 nM.
The figure for `COc1cccc(C2(N)CCc3nc(NC(C)=O)sc3C2)c1` (racemic) [rac-A300, N-(6-amino-6-(3-methoxyphenyl)-4,5,6,7-tetrahydrobenzo[d]thiazol-2-yl)acetamide] is 2100 nM.
The figure for `COc1cccc(C2(N)CCc3c(sc(=O)n3C)C2)c1` (racemic) [rac-A299, 6-amino-6-(3-methoxyphenyl)-3-methyl-4,5,6,7-tetrahydrobenzo[d]thiazol-2-one hydrochloride] is 520 nM; for `CNC1(c2ccc(F)cc2)CCc2ncsc2C1` (racemic) [rac-A294, 6-(4-fluorophenyl)-N-methyl-4,5,6,7-tetrahydrobenzo[d]thiazol-6-amine] it is 1100 nM.
As for `CN(C)C1(c2ccccc2)CCc2ncsc2C1` (racemic) [rac-A233, N,N-dimethyl-6-phenyl-4,5,6,7-tetrahydrobenzo[d]thiazol-6-amine], the IC50 is 300 nM.
With `CNC1(c2ccccc2F)CCc2nc(N)sc2C1` (racemic) [rac-A81, 6-(2-fluorophenyl)-N^6-methyl-4,5,6,7-tetrahydrobenzothiazole-2,6-diamine], the IC50 turned out to be 94 nM.

The record behind these values is US20260174739A1 (priority 2022, published 2026).
